In ChEMBL document CHEMBL4765340, “Novel potent antiplatelet thrombotic agent derived from biguanide for ischemic stroke” (Eur J Med Chem, 2020):
The source made the active and inactive calls. The rule behind the calls is not given here.

Key:
[1] = Inhibition of thrombin-induced platelet aggregation in mouse platelet isolated from C57BL/6J mouse treated at 200 mg/kg, ig twice a day for 7 days by lumi-aggregometer; type: functional; settings: po, 168 h, time 7 day
[2] = Inhibition of thrombin-stimulated human platelet aggregation by measuring aggregation at 0.10 mM measured after 3 hrs by scanning electron microscopy (Rvb= 87.2 +/- 4.0%); type: functional; parameters: scale not given: the % may be the effect or the level left; settings: dose 0.1 mM
Platelet [3] = assay: Inhibition of thrombin-stimulated human platelet aggregation at 1 mM measured after 3 hrs by scanning electron microscopy (Rvb= 87.2 +/- 4.0%); type: functional, tissue-based
[4] = Inhibition of thrombin-stimulated human platelet aggregation by measuring aggregation at 0.50 mM measured after 2 hrs by scanning electron microscopy; type: functional; parameters: scale not given: the % may be the effect or the level left; settings: dose 0.5 mM
[5] = Inhibition of thrombin-stimulated human platelet aggregation by measuring aggregation at 0.50 mM measured after 3 hrs by scanning electron microscopy; type: functional; parameters: scale not given: the % may be the effect or the level left; settings: dose 0.5 mM
[6] = Inhibition of thrombin-stimulated human platelet aggregation by measuring aggregation at 0.50 mM measured after 4 hrs by scanning electron microscopy; type: functional; parameters: scale not given: the % may be the effect or the level left; settings: dose 0.5 mM
Platelet [7] = assay: Cytotoxicity against human platelet assessed as extracellular LDH levels changes at 1 mM incubated for 1 hrs; type: cell-based; settings: 1000 µM
Platelet [8] = assay: Cytotoxicity against human platelet assessed as extracellular LDH levels changes at 1 mM incubated for 3 hrs; type: cell-based; settings: 1000 µM
Platelet [9] = assay: Cytotoxicity against human platelet assessed as extracellular LDH levels changes at 1 mM incubated for 6 hrs; type: cell-based; settings: 1000 µM
[10] = Suppression of glycoprotein IIb/IIIa activation in thrombin-stimulated human platelets by measuring activated GPIIb/IIIa at 0.10 mM measured after 3 hrs by PAC-1-FITC dye based flow cytometry (reference value: 90.1%); type: functional; settings: Platelet, at 0.1 mM
[11] = Suppression of glycoprotein IIb/IIIa activation in thrombin-stimulated human platelets by measuring activated GPIIb/IIIa at 0.50 mM measured after 3 hrs by PAC-1-FITC dye based flow cytometry (reference value: 90.1%); type: functional; settings: Platelet, at 0.5 mM
[12] = Suppression of P-selectin expression in thrombin-stimulated human platelets by measuring CD62P positive platelets at 0.01 mM after 3 hrs by flow cytometry analysis (reference value: 78.2%); type: functional; settings: Platelet
[13] = Suppression of P-selectin expression in thrombin-stimulated human platelets by measuring CD62P positive platelets at 0.05 mM after 3 hrs by flow cytometry analysis (reference value: 78.2%); type: functional; settings: Platelet
[14] = Suppression of P-selectin expression in thrombin-stimulated human platelets by measuring CD62P positive platelets at 0.10 mM after 3 hrs by flow cytometry analysis (reference value: 78.2%); type: functional; settings: Platelet, at 0.1 mM
Mus musculus [15] = assay: Antithrombotic activity in calcein-labelled platelet-mediated ferric chloride-induced arterial injury thrombosis C57BL/6J mouse model assessed as thrombus weight at 300 mg/kg, po administrated twice a day measured upto 7 days (reference value: 3.3 +/- 0.3 mg); type: functional; settings: time day <=7
Mus musculus [16] = assay: Antithrombotic activity in calcein-labelled platelet-mediated ferric chloride-induced arterial injury thrombosis C57BL/6J mouse model assessed as thrombus length at 200 mg/kg, po administrated twice a day measured upto 7 days (reference value: 4.4 +/- 0.4 mm); type: functional; settings: time day <=7
Mus musculus [17] = assay: (§1) Antithrombotic activity in transient focal cerebral ischemic mouse model occlusion induced 60 mins of the right middle cerebral artery followed by reperfussion 23 hrs assessed as reduction of brain infract volume at 200 mg/kg, po twice daily for 7 days by TTC staining based […] analysis (reference value: 46 +/- 5%); type: functional; parameters: scale not given: the % may be the effect or the level left; settings: time 7 day
Mus musculus [18] = assay: as §1, with “neurological deficits” for “brain infract volume”, “analysis” for “analysis (reference value: 46 +/- 5%)”; type: functional, organism-based; settings: time 7.0 day
[19] = Half life in Sprague-Dawley rat at 200 mg/kg, po measured by HPLC-MS/MS analysis; type: ADME, organism-based; settings: in vivo
[20] = Apparent clearance during terminal phase in Sprague-Dawley rat at 200 mg/kg, po measured by HPLC-MS/MS analysis; type: ADME, organism-based; settings: in vivo
[21] = Toxicity against C57BL/6J mouse assessed as heart morphology at 200 mg/kg twice a day measured after 60 days; type: organism-based; settings: in vivo, 1440 h, time 60 day
[22] = Toxicity against C57BL/6J mouse assessed as liver morphology at 200 mg/kg twice a day measured after 60 days; type: organism-based; settings: in vivo, 1440 h, time 60 day
[23] = Toxicity against C57BL/6J mouse assessed as body weight at 200 mg/kg twice a day measured after 60 days; type: organism-based; settings: in vivo, 1440 h, time 60 day
[24] = Toxicity against C57BL/6J mouse assessed as effect on blood lactic acid at 200 mg/kg twice a day measured after 60 days; type: organism-based; settings: in vivo, 1440 h, time 60 day
[25] = Toxicity against diabetic C57BL/6J mouse assessed hypoglycemic activity at 200 mg/kg twice a day measured after 60 days relative to parent compound; type: organism-based; settings: in vivo, 1440 h, time 60 day
[26] = Toxicity in calcein-labelled platelet-mediated ferric chloride-induced arterial injury thrombosis po dosed C57BL/6J mouse model assessed as change in activated partial thromboplastin time treated twice a day measured upto 7 days; type: organism-based; settings: in vivo, 168 h, time <=7 day
[27] = Toxicity in calcein-labelled platelet-mediated ferric chloride-induced arterial injury thrombosis po dosed C57BL/6J mouse model assessed as change in fibrinogen treated twice a day measured upto 7 days; type: organism-based; settings: in vivo, 168 h, time <=7 day
Mus musculus [28] = assay: Antithrombotic activity in collagen-epinephrine induced pulmonary thromboembolism mouse model assessed as protection rate at 200 mg/kg, ig twice a day for 7 days followed by administered collagen-epinephrine relative to control; type: functional; settings: time 7 day
[29] = Toxicity in calcein-labelled platelet-mediated ferric chloride-induced arterial injury thrombosis po dosed C57BL/6J mouse model assessed as change in coagulation factor V treated twice a day measured upto 7 days; type: organism-based; settings: in vivo, 168 h, time <=7 day
[30] = Toxicity in calcein-labelled platelet-mediated ferric chloride-induced arterial injury thrombosis po dosed C57BL/6J mouse model assessed as change in coagulation factor VII to XII treated twice a day measured upto 7 days; type: organism-based; settings: in vivo, 168 h, time <=7 day
Mus musculus [31] = assay: Antithrombotic activity in transient focal cerebral ischemic mouse model occlusion induced 60 mins of the right middle cerebral artery followed by reperfussion 23 hrs assessed as decrease in blood viscosity at 200 mg/kg, po twice daily for 7 days; type: functional, organism-based; settings: time 7.0 day
Mus musculus [32] = assay: Antithrombotic activity in transient focal cerebral ischemic mouse model occlusion induced 60 mins of the right middle cerebral artery followed by reperfussion 23 hrs assessed as improve in damaged neural function at 200 mg/kg, po twice daily for 7 days; type: functional, organism-based; settings: time 7.0 day
[33] = Toxicity in C57BL/6J mouse assessed as change in sodium level at 200 mg/kg twice daily for 60 days relative to control; type: organism-based; settings: in vivo, 1440 h, time 60 day
[34] = Toxicity in C57BL/6J mouse assessed as change in blood urea nitrogen level at 200 mg/kg twice daily for 60 days relative to control; type: organism-based; settings: in vivo, 1440 h, time 60 day
[35] = Toxicity in C57BL/6J mouse assessed as change in creatinine level at 200 mg/kg twice daily for 60 days relative to control; type: organism-based; settings: in vivo, 1440 h, time 60 day
[36] = Toxicity in C57BL/6J mouse assessed as change in platelet count at 200 mg/kg twice daily for 60 days relative to control; type: organism-based; settings: in vivo, 1440 h, time 60 day
[37] = Toxicity in C57BL/6J mouse assessed as change in platelet distribution width at 200 mg/kg twice daily for 60 days relative to control; type: organism-based; settings: in vivo, 1440 h, time 60 day
[38] = Toxicity in C57BL/6J mouse assessed as change in thrombo-cytocrit at 200 mg/kg twice daily for 60 days relative to control; type: organism-based; settings: in vivo, 1440 h, time 60 day

For CN(C)C(=N)NC(=N)NS(=O)(=O)C(F)(F)F, the inhibition in vivo at 200 mg/kg [1] was 71.5%, the Activity [2] was 44.2% and the inhibition (Platelet [3]) was “inactive”. It also gave an Activity [4] of 35%, an Activity [5] of 21% and an Activity [6] of 19.5%. The Activity (Platelet [7]) was “Non-Toxic”, the Activity (Platelet [8]) was “Non-Toxic” and the Activity (Platelet [9]) was “Non-Toxic”. It also gave a level, % of control at 100 µM [10] of 44.5%, a level, % of control at 500 µM [11] of 37.5% and a level, % of control at 10 µM [12] of 72.8%. For the same molecule, the level, % of control at 50 µM [13] was 58.9%, the level, % of control at 100 µM [14] was 54.7% and the Activity (Mus musculus [15]) was 0.4 mg. For the same molecule, the Activity (Mus musculus [16]) was 1.5 mm, the Activity (Mus musculus [17]) was 5% and the Activity (Mus musculus [18]) was “Active”. The half-life [19] was 4.94 h, the CLz/F [20] was 16.6 mL/min/kg and the Activity [21] was “Non-Toxic”. For the same molecule, the Activity [22] was “Non-Toxic”, the Activity [23] was “Non-Toxic” and the Activity [24] was “Non-Toxic”. For the same molecule, the Activity [25] was “Non-Toxic”, the Activity [26] was “Non-Toxic” and the Activity [27] was “Non-Toxic”. The Activity (Mus musculus [28]) was 70%, the Activity [29] was “Non-Toxic” and the Activity [30] was “Non-Toxic”. For the same molecule, the Activity (Mus musculus [31]) was “Active”, the Activity (Mus musculus [32]) was “Active” and the Activity [33] was “Non-Toxic”. The Activity [34] was “Non-Toxic”, the Activity [35] was “Non-Toxic” and the Activity [36] was “Non-Toxic”. For the same molecule, the Activity [37] was “Non-Toxic” and the Activity [38] was “Non-Toxic”.
